Data from US10584115B2, “Substituted pyridine and pyrazine BMI-1 inhibitors” (PTC Therapeutics, Inc., priority 2013, dated 2020).

How the values were obtained:
Bmi-1 protein = assay: Sandwich ELISA Assay (Bmi-1 protein level in HT-1080 cells after compound treatment); type: cell-based; conditions: Table 1, Bmi-1 sandwich ELISA, read-out: ELISA EC50 value for Bmi-1 protein
Summary of the method: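 HT-1080 cells exposed to compounds for 40–48 h at 37 °C (0.5% DMSO final), then lysed. Bmi-1 in lysates measured by sandwich ELISA (mouse monoclonal capture, rabbit anti-Bmi-1 detection, HRP anti-rabbit, TMB), read at OD450 with OD570 reference against a recombinant Bmi-1 standard curve (0–8000 pg/mL).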

Row | EC50 (Bmi-1 protein) | melting point | Structure (SMILES)
1 | 1 to 10 nM | 252 to 255 °C | CCc1nc2ccc(F)cc2n1-c1cncc(Nc2ccc(Cl)cc2)n1 [compound 623, N-(4-chlorophenyl)-6-(2-ethyl-6-fluoro-1H-benzimidazol-1-yl)pyrazin-2-amine]
2 | 10 to 100 nM | 179 to 181 °C | CCc1nc2ccc(F)cc2n1-c1cncc(Nc2cccc(OC)c2)n1 [compound 624, 6-(2-ethyl-6-fluoro-1H-benzimidazol-1-yl)-N-(3-methoxyphenyl)pyrazin-2-amine]
3 | 100 to 3000 nM | 192 to 195 °C | CCc1nc2ccc(F)cc2n1-c1cncc(Nc2cccc(Cl)c2)n1 [compound 625, N-(3-chlorophenyl)-6-(2-ethyl-6-fluoro-1H-benzimidazol-1-yl)pyrazin-2-amine]
4 | 100 to 3000 nM | 228 to 230 °C | CCc1nc2ccc(F)cc2n1-c1cncc(Nc2cccc(F)c2)n1 [compound 626, 6-(2-ethyl-6-fluoro-1H-benzimidazol-1-yl)-N-(3-fluorophenyl)pyrazin-2-amine]
5 | 1 to 10 nM | 186 to 188 °C | Cc1ccc(Nc2cncc(-c3c(C)noc3C)n2)cc1 [compound 635, 6-(3,5-dimethyl-1,2-oxazol-4-yl)-N-(4-methylphenyl)pyrazin-2-amine]
6 | 10 to 100 nM | 154 to 155 °C | COc1ccc(Nc2cncc(-c3c(C)noc3C)n2)cc1 [compound 636, 6-(3,5-dimethyl-1,2-oxazol-4-yl)-N-(4-methoxyphenyl)pyrazin-2-amine]
7 | 10 to 100 nM | 158 to 159 °C | COc1ccc(Nc2cncc(-c3c(C)noc3C)n2)cc1F [compound 637, 6-(3,5-dimethyl-1,2-oxazol-4-yl)-N-(3-fluoro-4-methoxyphenyl)pyrazin-2-amine]
8 | 100 to 3000 nM | 173 to 174 °C | COc1ccc(Nc2cncc(-c3c(C)noc3C)n2)cn1 [compound 638, 6-(3,5-dimethyl-1,2-oxazol-4-yl)-N-(6-methoxypyridin-3-yl)pyrazin-2-amine]
9 | 100 to 3000 nM | 185 to 186 °C | Cc1noc(C)c1-c1cncc(Nc2ccc3c(c2)OCO3)n1 [compound 639, N-(1,3-benzodioxol-5-yl)-6-(3,5-dimethyl-1,2-oxazol-4-yl)pyrazin-2-amine]
10 | 100 to 3000 nM | 176 to 178 °C | Cc1nc2ccc(F)cn2c1-c1cc(C#N)cc(Nc2ccccc2)n1 [compound 646, 2-(6-fluoro-2-methylimidazo[1,2-a]pyridin-3-yl)-6-(phenylamino)pyridine-4-carbonitrile]
11 | 10 to 100 nM | 148 to 151 °C | Cc1nc2ccc(F)cn2c1-c1cc(C#N)cc(Nc2ccc(Cl)cc2)n1 [compound 647, 2-[(4-chlorophenyl)amino]-6-(6-fluoro-2-methylimidazo[1,2-a]pyridin-3-yl)pyridine-4-carbonitrile]
12 | 1 to 10 nM | 185 to 188 °C | Cc1ccc(Nc2cc(C#N)cc(-c3c(C)nc4ccc(F)cn34)n2)cc1 [compound 648, 2-(6-fluoro-2-methylimidazo[1,2-a]pyridin-3-yl)-6-[(4-methylphenyl)amino}pyridine-4-carbonitrile]
13 | 1 to 10 nM | 190 to 192 °C | COc1ccc(Nc2cc(C#N)cc(-c3c(C)nc4ccc(F)cn34)n2)cc1 [compound 649, 2-(6-fluoro-2-methylimidazo[1,2-a]pyridin-3-yl)-6-[(4-methoxyphenyl)amino}pyridine-4-carbonitrile]
14 | 100 to 3000 nM | 247 to 250 °C | COc1cccc(Nc2cc(C#N)cc(-c3c(C)nc4ccc(F)cn34)n2)c1 [compound 650, 2-(6-fluoro-2-methylimidazo[1,2-a]pyridin-3-yl)-6-[(3-methoxyphenyl)amino}pyridine-4-carbonitrile]
